Laboratory results: ChEMBL document CHEMBL4145495, “Development of novel oxazolo[5,4-d]pyrimidines as competitive CB2 neutral antagonists based on scaffold hopping” (Eur J Med Chem, 2018)

Test system: not listed separately
Experiment: Intrinsic clearance in CD1 mouse liver microsomes at 200 nM up to 40 mins by UPLC-MS/MS analysis
Assay type: ADME, microsome
Conditions: read-out: CLH

| SMILES | microsomal CLint at 0.2 µM [µL/min/mg] |
| --- | --- |
| CN1CCN(c2ncnc3oc(-c4ccccc4Cl)nc23)CC1 | 1180 |
| CC(=O)N1CCN(c2ncnc3oc(-c4ccccc4Cl)nc23)CC1 | 194 |

Organism: Homo sapiens
Experiment: Selectivity index, ratio of Ki for human CB1 to Ki for human CB2
Conditions: not given

| Ratio Ki | SMILES |
| --- | --- |
| > 3.9 | CC(=O)N1CCN(c2ncnc3oc(-c4ccccc4C(F)(F)F)nc23)CC1 |
| > 6.4 | CN1CCN(c2ncnc3oc(-c4ccccc4C(F)(F)F)nc23)CC1 |
| > 10.4 | CCN1CCN(c2ncnc3oc(-c4ccccc4C(F)(F)F)nc23)CC1 |

More lines, now with the values behind:

| SMILES | Ratio Ki |
| --- | --- |
| CCN1CCN(c2nc(C)nc3oc(-c4ccccc4Cl)nc23)CC1 | 12.7 |
| Cc1nc(N2CCN(C)CC2)c2nc(-c3ccccc3Cl)oc2n1 | > 36.3 |
| CCN1CCN(c2ncnc3oc(-c4ccccc4Cl)nc23)CC1 | > 3 |
| CN1CCN(c2ncnc3oc(-c4ccccc4Cl)nc23)CC1 | > 2.8 |
| CC(=O)N1CCN(c2ncnc3oc(-c4ccccc4Cl)nc23)CC1 | > 1.4 |

Test system: not listed separately
Experiment: Half life in CD1 mouse liver microsomes at 200 nM up to 40 mins by UPLC-MS/MS analysis
Assay type: ADME, microsome
Conditions: not given

| SMILES | half-life at 0.2 µM [min] |
| --- | --- |
| CN1CCN(c2ncnc3oc(-c4ccccc4Cl)nc23)CC1 | 1.3 |
| CC(=O)N1CCN(c2ncnc3oc(-c4ccccc4Cl)nc23)CC1 | 12.2 |

Target: T1, Cannabinoid receptor 2 (Homo sapiens, UniProt P34972)
T1 sequence (P34972 whole entry): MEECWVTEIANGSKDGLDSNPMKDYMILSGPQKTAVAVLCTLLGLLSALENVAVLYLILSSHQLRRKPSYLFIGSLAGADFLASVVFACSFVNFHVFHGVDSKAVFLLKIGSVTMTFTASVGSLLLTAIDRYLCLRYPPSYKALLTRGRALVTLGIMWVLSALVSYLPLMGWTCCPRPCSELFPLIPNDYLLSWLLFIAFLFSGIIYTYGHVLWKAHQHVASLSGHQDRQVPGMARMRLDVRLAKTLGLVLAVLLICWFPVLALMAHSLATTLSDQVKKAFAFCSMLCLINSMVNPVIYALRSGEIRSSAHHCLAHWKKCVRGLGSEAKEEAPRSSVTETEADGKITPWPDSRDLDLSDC
Experiment: Neutral antagonist activity at human CB2 assessed as restoration of forskolin-induced cAMP formation preincubated for 15 mins followed by forskolin addition for 30 mins measured after 1 hr by HTRF assay
Assay type: functional
Conditions: not given

| SMILES | IC50 [µM] |
| --- | --- |
| CCN1CCN(c2nc(C)nc3oc(-c4ccccc4Cl)nc23)CC1 | 0.12 |
| Cc1nc(N2CCN(C)CC2)c2nc(-c3ccccc3Cl)oc2n1 | 0.93 |

Test system: not listed separately
Experiment: Cytotoxicity against CB2-expressing CHO cells assessed as cell growth inhibition at 10 uM after 72 hrs by MTS assay
Assay type: cell-based, Cricetulus griseus
Conditions: chinese hamster, read-out: GI

| SMILES | inhibition at 72 h, 10 µM [%] |
| --- | --- |
| CCN1CCN(c2nc(C)nc3oc(-c4ccccc4Cl)nc23)CC1 | 16 |
| CCCN1CCN(c2ncnc3oc(-c4ccccc4Cl)nc23)CC1 | 2 |
| Cc1nc(N2CCN(C)CC2)c2nc(-c3ccccc3Cl)oc2n1 | 4 |
| CN1CCN(c2ncnc3oc(-c4ccccc4F)nc23)CC1 | 7 |
| CCN1CCN(c2ncnc3oc(-c4ccccc4Cl)nc23)CC1 | 9 |
| CC(=O)N1CCN(c2ncnc3oc(-c4ccccc4C(F)(F)F)nc23)CC1 | 1 |
| CN1CCN(c2ncnc3oc(-c4ccccc4C(F)(F)F)nc23)CC1 | 0 |
| CN1CCN(c2ncnc3oc(-c4ccccc4Cl)nc23)CC1 | 0 |
| CCN1CCN(c2ncnc3oc(-c4ccccc4C(F)(F)F)nc23)CC1 | 5 |
| CC(=O)N1CCN(c2ncnc3oc(-c4ccccc4Cl)nc23)CC1 | 11 |

Test system: not listed separately
Experiment: Intrinsic clearance in CD1 mouse liver microsomes at 1 uM up to 40 mins by UPLC-MS/MS analysis
Assay type: ADME, microsome
Conditions: read-out: CLH

| microsomal CLint at 1 µM [µL/min/mg] | SMILES |
| --- | --- |
| 174 | CC(=O)N1CCN(c2ncnc3oc(-c4ccccc4C(F)(F)F)nc23)CC1 |
| 1260 | CN1CCN(c2ncnc3oc(-c4ccccc4C(F)(F)F)nc23)CC1 |
| 1240 | CCN1CCN(c2ncnc3oc(-c4ccccc4C(F)(F)F)nc23)CC1 |

More lines, now with the values behind:

| SMILES | microsomal CLint at 1 µM [µL/min/mg] |
| --- | --- |
| CCN1CCN(c2nc(C)nc3oc(-c4ccccc4Cl)nc23)CC1 | 263 |
| Cc1nc(N2CCN(C)CC2)c2nc(-c3ccccc3Cl)oc2n1 | 502 |
| CCN1CCN(c2ncnc3oc(-c4ccccc4Cl)nc23)CC1 | 1100 |

Target: T1, Cannabinoid receptor 2
Experiment: Neutral antagonist activity at human CB2 assessed as inhibition of WIN552122-induced suppression of cAMP formation preincubated for 15 mins followed by forskolin addition for 30 mins measured after 1 hr by HTRF assay
Assay type: functional
Conditions: not given

| SMILES | IC50 [µM] |
| --- | --- |
| CCN1CCN(c2nc(C)nc3oc(-c4ccccc4Cl)nc23)CC1 | 0.12 |
| Cc1nc(N2CCN(C)CC2)c2nc(-c3ccccc3Cl)oc2n1 | 0.93 |

Test system: not listed separately
Experiment: Half life in CD1 mouse liver microsomes at 1 uM up to 40 mins by UPLC-MS/MS analysis
Assay type: ADME, microsome
Conditions: not given

| half-life at 1 µM [min] | SMILES |
| --- | --- |
| 12.5 | CC(=O)N1CCN(c2ncnc3oc(-c4ccccc4C(F)(F)F)nc23)CC1 |
| 0.9 | CN1CCN(c2ncnc3oc(-c4ccccc4C(F)(F)F)nc23)CC1 |
| 1 | CCN1CCN(c2ncnc3oc(-c4ccccc4C(F)(F)F)nc23)CC1 |

More lines, now with the values behind:

| SMILES | half-life at 1 µM [min] |
| --- | --- |
| CCN1CCN(c2nc(C)nc3oc(-c4ccccc4Cl)nc23)CC1 | 8.1 |
| Cc1nc(N2CCN(C)CC2)c2nc(-c3ccccc3Cl)oc2n1 | 4.1 |
| CCN1CCN(c2ncnc3oc(-c4ccccc4Cl)nc23)CC1 | 1.2 |

Test system: not listed separately
Experiment: Cytotoxicity against human HT-29 cells assessed as cell growth inhibition at 10 uM after 72 hrs by MTS assay
Assay type: cell-based
Conditions: read-out: GI

| SMILES | inhibition at 72 h, 10 µM [%] |
| --- | --- |
| CCN1CCN(c2nc(C)nc3oc(-c4ccccc4Cl)nc23)CC1 | 16 |
| CCCN1CCN(c2ncnc3oc(-c4ccccc4Cl)nc23)CC1 | 0 |
| Cc1nc(N2CCN(C)CC2)c2nc(-c3ccccc3Cl)oc2n1 | 24 |
| CN1CCN(c2ncnc3oc(-c4ccccc4F)nc23)CC1 | 0 |
| CCN1CCN(c2ncnc3oc(-c4ccccc4Cl)nc23)CC1 | 4 |
| CC(=O)N1CCN(c2ncnc3oc(-c4ccccc4C(F)(F)F)nc23)CC1 | 12 |
| CN1CCN(c2ncnc3oc(-c4ccccc4C(F)(F)F)nc23)CC1 | 0 |
| CN1CCN(c2ncnc3oc(-c4ccccc4Cl)nc23)CC1 | 8 |
| CCN1CCN(c2ncnc3oc(-c4ccccc4C(F)(F)F)nc23)CC1 | 1 |
| CC(=O)N1CCN(c2ncnc3oc(-c4ccccc4Cl)nc23)CC1 | 0 |

Test system: not listed separately
Experiment: Cytotoxicity against wild-type CHO cells assessed as cell growth inhibition at 10 uM after 72 hrs by MTS assay
Assay type: cell-based, Cricetulus griseus
Conditions: chinese hamster, read-out: GI

| SMILES | inhibition at 72 h, 10 µM [%] |
| --- | --- |
| CCN1CCN(c2nc(C)nc3oc(-c4ccccc4Cl)nc23)CC1 | 0 |
| CCCN1CCN(c2ncnc3oc(-c4ccccc4Cl)nc23)CC1 | 0 |
| Cc1nc(N2CCN(C)CC2)c2nc(-c3ccccc3Cl)oc2n1 | 0 |
| CN1CCN(c2ncnc3oc(-c4ccccc4F)nc23)CC1 | 8 |
| CCN1CCN(c2ncnc3oc(-c4ccccc4Cl)nc23)CC1 | 1 |
| CC(=O)N1CCN(c2ncnc3oc(-c4ccccc4C(F)(F)F)nc23)CC1 | 12 |
| CN1CCN(c2ncnc3oc(-c4ccccc4C(F)(F)F)nc23)CC1 | 3 |
| CN1CCN(c2ncnc3oc(-c4ccccc4Cl)nc23)CC1 | 0 |
| CCN1CCN(c2ncnc3oc(-c4ccccc4C(F)(F)F)nc23)CC1 | 10 |
| CC(=O)N1CCN(c2ncnc3oc(-c4ccccc4Cl)nc23)CC1 | 23 |

Target: Cannabinoid receptor 1 (Homo sapiens, UniProt P21554)
Sequence (P21554 whole entry): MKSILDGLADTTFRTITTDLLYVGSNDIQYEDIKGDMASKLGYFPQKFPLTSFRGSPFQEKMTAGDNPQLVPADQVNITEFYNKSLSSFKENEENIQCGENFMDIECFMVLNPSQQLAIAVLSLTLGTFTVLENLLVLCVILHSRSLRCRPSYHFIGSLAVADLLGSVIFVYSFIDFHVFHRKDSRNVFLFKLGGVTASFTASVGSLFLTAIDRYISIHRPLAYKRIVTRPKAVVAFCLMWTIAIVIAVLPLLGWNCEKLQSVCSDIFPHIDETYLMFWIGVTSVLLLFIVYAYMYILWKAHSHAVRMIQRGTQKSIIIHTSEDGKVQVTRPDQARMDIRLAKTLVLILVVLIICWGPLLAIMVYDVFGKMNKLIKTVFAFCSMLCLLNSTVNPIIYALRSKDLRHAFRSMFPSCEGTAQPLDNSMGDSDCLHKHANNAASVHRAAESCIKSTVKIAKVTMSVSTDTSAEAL
Experiment: Displacement of [3H]-CP-55940 from human CB1 expressed in CHO cells after 90 mins by TopCount scintillation counting method
Assay type: cell-based
Conditions: not given

| SMILES | Ki [µM] |
| --- | --- |
| CCN1CCN(c2nc(C)nc3oc(-c4ccccc4Cl)nc23)CC1 | 0.293 |
| CCCN1CCN(c2ncnc3oc(-c4ccccc4Cl)nc23)CC1 | > 1 |
| Cc1nc(N2CCN(C)CC2)c2nc(-c3ccccc3Cl)oc2n1 | > 1 |
| CN1CCN(c2ncnc3oc(-c4ccccc4F)nc23)CC1 | > 1 |
| CCN1CCN(c2ncnc3oc(-c4ccccc4Cl)nc23)CC1 | > 1 |
| CC(=O)N1CCN(c2ncnc3oc(-c4ccccc4C(F)(F)F)nc23)CC1 | > 1 |
| CN1CCN(c2ncnc3oc(-c4ccccc4C(F)(F)F)nc23)CC1 | > 1 |
| CN1CCN(c2ncnc3oc(-c4ccccc4Cl)nc23)CC1 | > 1 |
| CCN1CCN(c2ncnc3oc(-c4ccccc4C(F)(F)F)nc23)CC1 | > 1 |
| CC(=O)N1CCN(c2ncnc3oc(-c4ccccc4Cl)nc23)CC1 | > 1 |

Target: T1, Cannabinoid receptor 2
Experiment: Displacement of [3H]-CP-55940 from human CB2 expressed in CHO cells after 90 mins by TopCount scintillation counting method
Assay type: cell-based
Conditions: not given

| SMILES | Ki [µM] |
| --- | --- |
| CCN1CCN(c2nc(C)nc3oc(-c4ccccc4Cl)nc23)CC1 | 0.023 |
| CCCN1CCN(c2ncnc3oc(-c4ccccc4Cl)nc23)CC1 | > 1 |
| Cc1nc(N2CCN(C)CC2)c2nc(-c3ccccc3Cl)oc2n1 | 0.0275 |
| CN1CCN(c2ncnc3oc(-c4ccccc4F)nc23)CC1 | > 1 |
| CCN1CCN(c2ncnc3oc(-c4ccccc4Cl)nc23)CC1 | 0.329 |
| CC(=O)N1CCN(c2ncnc3oc(-c4ccccc4C(F)(F)F)nc23)CC1 | 0.254 |
| CN1CCN(c2ncnc3oc(-c4ccccc4C(F)(F)F)nc23)CC1 | 0.155 |
| CN1CCN(c2ncnc3oc(-c4ccccc4Cl)nc23)CC1 | 0.35 |
| CCN1CCN(c2ncnc3oc(-c4ccccc4C(F)(F)F)nc23)CC1 | 0.0955 |
| CC(=O)N1CCN(c2ncnc3oc(-c4ccccc4Cl)nc23)CC1 | 0.678 |
